One assay addresses T1, human recombinant HDAC6 (Homo sapiens, UniProt Q9UBN7).
T1 construct: purchased Calbiochem 382180
T1 sequence (Q9UBN7 1-1215): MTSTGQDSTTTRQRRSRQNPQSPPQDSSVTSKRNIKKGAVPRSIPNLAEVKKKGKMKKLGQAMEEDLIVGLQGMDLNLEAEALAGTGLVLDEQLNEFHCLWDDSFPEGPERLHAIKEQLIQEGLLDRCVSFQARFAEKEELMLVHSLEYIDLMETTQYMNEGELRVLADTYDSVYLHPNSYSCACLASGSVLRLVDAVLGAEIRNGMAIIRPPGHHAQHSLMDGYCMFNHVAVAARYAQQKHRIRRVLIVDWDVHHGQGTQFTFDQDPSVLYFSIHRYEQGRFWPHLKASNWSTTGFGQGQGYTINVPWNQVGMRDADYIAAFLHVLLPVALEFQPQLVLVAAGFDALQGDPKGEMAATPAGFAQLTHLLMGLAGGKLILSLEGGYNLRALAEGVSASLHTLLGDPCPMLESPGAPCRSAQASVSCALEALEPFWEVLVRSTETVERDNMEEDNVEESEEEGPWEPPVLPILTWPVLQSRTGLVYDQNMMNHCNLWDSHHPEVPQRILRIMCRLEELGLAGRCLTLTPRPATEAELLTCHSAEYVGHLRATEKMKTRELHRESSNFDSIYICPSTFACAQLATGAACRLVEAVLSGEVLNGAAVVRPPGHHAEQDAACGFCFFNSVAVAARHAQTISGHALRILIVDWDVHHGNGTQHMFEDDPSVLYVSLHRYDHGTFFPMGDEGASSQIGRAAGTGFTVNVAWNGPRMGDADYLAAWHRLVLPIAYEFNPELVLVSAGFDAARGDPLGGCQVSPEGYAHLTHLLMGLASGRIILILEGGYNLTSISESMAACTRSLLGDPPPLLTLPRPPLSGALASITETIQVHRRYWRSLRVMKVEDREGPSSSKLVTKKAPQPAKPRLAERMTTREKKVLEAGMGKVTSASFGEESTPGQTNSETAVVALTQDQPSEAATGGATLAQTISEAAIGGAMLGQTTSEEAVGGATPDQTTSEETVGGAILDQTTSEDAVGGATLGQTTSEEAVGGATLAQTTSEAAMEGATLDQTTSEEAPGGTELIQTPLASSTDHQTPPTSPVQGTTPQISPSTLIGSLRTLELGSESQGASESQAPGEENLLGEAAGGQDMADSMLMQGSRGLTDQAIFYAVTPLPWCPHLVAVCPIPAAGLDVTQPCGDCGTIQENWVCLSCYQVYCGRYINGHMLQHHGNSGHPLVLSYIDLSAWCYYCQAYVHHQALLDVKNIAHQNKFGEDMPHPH
Nature of the assay: HDAC6 enzyme activity inhibition assay (HDAC Fluorimetric Drug Discovery Kit). The class given is biochemical. As to conditions: for HDAC6 selectivity (fold): HDAC6 over HDAC1; for IC50: human recombinant HDAC6, same protocol as HDAC1, read-out: HDAC6. In outline:
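Fluorimetric deacetylase assay: 5-fold serial compound dilutions, 0.3 μg recombinant human enzyme (HDAC1 or HDAC6, same protocol), 10 μM Fluor de Lys-SIRT1 substrate, 60 min at 30 °C. Signal developed 30 min, measured at 360/460 nm; IC50 values derived.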

In the next assay the target is T2, human recombinant HDAC1 (Homo sapiens, UniProt Q13547).
T2 construct: purchased Enzo Life Science BML-SE456
T2 sequence (Q13547 whole entry): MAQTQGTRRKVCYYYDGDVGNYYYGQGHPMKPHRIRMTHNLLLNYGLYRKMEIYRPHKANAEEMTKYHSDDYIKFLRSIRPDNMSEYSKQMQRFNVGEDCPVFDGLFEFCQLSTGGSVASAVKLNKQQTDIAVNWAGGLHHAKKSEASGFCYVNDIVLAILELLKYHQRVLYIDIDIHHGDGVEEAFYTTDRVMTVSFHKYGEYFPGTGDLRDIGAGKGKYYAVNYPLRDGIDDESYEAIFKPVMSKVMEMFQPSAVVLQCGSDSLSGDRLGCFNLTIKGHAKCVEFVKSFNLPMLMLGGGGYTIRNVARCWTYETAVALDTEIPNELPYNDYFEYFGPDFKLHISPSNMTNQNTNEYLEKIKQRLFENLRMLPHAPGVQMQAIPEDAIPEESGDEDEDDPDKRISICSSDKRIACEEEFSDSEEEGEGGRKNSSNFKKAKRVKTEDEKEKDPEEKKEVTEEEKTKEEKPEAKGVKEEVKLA
Nature of the assay: HDAC1 enzyme activity inhibition assay (HDAC Fluorimetric Drug Discovery Kit). The assay is classed as biochemical. As to conditions: human recombinant HDAC1, Fluor de Lys substrate 10 μM, 30° C. 60 minutes. How it is done: In order to examine the HDAC6 selectivity of the compounds of formula I of the present invention by HDAC1 and HDAC6 enzymatic activity inhibition assays, an experiment was performed using a conventional substance as a control.
HDAC enzyme activity was measured using a HDAC Fluorimetric Drug Discovery Kit (BML-AK511, 516, Enzo Life Science). For the HDAC1 enzyme activity test, human recombinant HDAC1 (BML-SE456) was used as an enzyme source, and Fluor de Lys®-“SIRT1 (BNL-KI177) was used as a substrate. A 5-fold dilution of the compound was seeded into a 96-well plate, and then 0.3 μg of the enzyme and 10 μM of the substrate were added to each well of the plate and allowed to react at 30° C. for 60 minutes. Then, Fluor de Lys®-Developer II (BML-KI176) was added thereto and allowed to react for 30 minutes, after which the fluorescence value (Ex 360, Em 460) was measured using a multi-plate reader (Flexstation 3, Molecular Device). The HDAC6 enzyme was tested using human recombinant HDAC6 (382180) (Calbiochem) according to the same protocol as the HDAC1 enzyme activity test method. Based on the resulting values, each IC5, value was calculated using GraphPad Prism4.0 program.

As to `O=C(N1CCS(=O)(=O)CC1)N(Cc1ccc(-c2nnc(C(F)(F)F)o2)cc1)c1ccc(-c2ccccc2)cc1` [Compound 21485, N-([1,1′-biphenyl]-4-yl)-N-(4-(5-(trifluoromethyl)-1,3,4-oxadiazol-2-yl)benzyl)thiomorpholine-4-carboxamide 1,1-dioxide], the “HDAC6 selectivity (fold)” value on human recombinant HDAC6 is given as 12 fold. Besides, the IC50 at human recombinant HDAC6 is 0.369 µM; on human recombinant HDAC1, 4.42 µM.

`Cn1ncc2ccc(-c3ccc(N(Cc4ccc(-c5nnc(C(F)(F)F)o5)cc4)C(=O)N4CCS(=O)(=O)CC4)cc3)cc21` [Compound 21487, N-(4-(1-methyl-1H-indazol-6-yl)phenyl)-N-(4-(5-(trifluoromethyl)-1,3,4-oxadiazol-2-yl)benzyl)thiomorpholine-4-carboxamide 1,1-dioxide]: on human recombinant HDAC6, the “HDAC6 selectivity (fold)” value amounted to 6 fold and the IC50 was found to be 0.344 µM. Besides, at human recombinant HDAC1, the IC50 is 1.95 µM.

Regarding `O=C(N1CCS(=O)(=O)CC1)N(Cc1ccc(-c2nnc(C(F)(F)F)o2)cc1)c1ccc(-c2cccnc2)cc1` [Compound 21489, N-(4-(pyridin-3-yl)phenyl)-N-(4-(5-(trifluoromethyl)-1,3,4-oxadiazol-2-yl)benzyl)thiomorpholine-4-carboxamide 1,1-dioxide], at human recombinant HDAC6, the “HDAC6 selectivity (fold)” value came out at 18 fold and the IC50 was 0.089 µM. Further, the IC50 on human recombinant HDAC1 is 1.65 µM.

For `O=C(N1CCS(=O)(=O)CC1)N(Cc1ccc(-c2nnc(C(F)(F)F)o2)cc1)c1ccc(-c2ccoc2)cc1` [Compound 21491, N-(4-(furan-3-yl)phenyl)-N-(4-(5-(trifluoromethyl)-1,3,4-oxadiazol-2-yl)benzyl)thiomorpholine-4-carboxamide 1,1-dioxide], at human recombinant HDAC6, the “HDAC6 selectivity (fold)” value is 25 fold and the IC50 was 0.157 µM. For the same compound, on human recombinant HDAC1, the IC50 was 4.04 µM.

For the compound `O=C(N1CCS(=O)(=O)CC1)N(Cc1ccc(-c2nnc(C(F)(F)F)o2)cc1)c1ccc(-c2ccc3c(c2)OCO3)cc1` [Compound 21493, N-(4-(benzo[d][1,3]dioxol-5-yl)phenyl)-N-(4-(5-(trifluoromethyl)-1,3,4-oxadiazol-2-yl)benzyl)thiomorpholine-4-carboxamide 1,1-dioxide], at human recombinant HDAC6, the “HDAC6 selectivity (fold)” value worked out at 6 fold and the IC50 turned out to be 0.313 µM. For the same compound, at human recombinant HDAC1, the IC50 is 1.74 µM.

Take `O=C(N1CCS(=O)(=O)CC1)N(Cc1ccc(-c2nnc(C(F)(F)F)o2)cc1F)c1ccc(-c2cccnc2)cc1` [Compound 21517, N-(2-fluoro-4-(5-(trifluoromethyl)-1,3,4-oxadiazol-2-yl)benzyl)-N-(4-(pyridin-3-yl)phenyl)thiomorpholine-4-carboxamide 1,1-dioxide]: at human recombinant HDAC6, the “HDAC6 selectivity (fold)” value is 31 fold. Further, the values for the IC50 at human recombinant HDAC6 and at human recombinant HDAC1 were 0.093 µM and 2.92 µM, respectively.

With `O=C(N1CCS(=O)(=O)CC1)N(Cc1ccc(-c2nnc(C(F)(F)F)o2)cc1F)c1ccc(-c2ccncc2)cc1` [Compound 21519, N-(2-fluoro-4-(5-(trifluoromethyl)-1,3,4-oxadiazol-2-yl)benzyl)-N-(4-(pyridin-4-yl)phenyl)thiomorpholine-4-carboxamide 1,1-dioxide], at human recombinant HDAC6, the “HDAC6 selectivity (fold)” value amounted to 20 fold and the IC50 was determined as 0.131 µM. In addition, the IC50 at human recombinant HDAC1 is 2.65 µM.

Take `O=C(N1CCS(=O)(=O)CC1)N(Cc1ccc(-c2nnc(C(F)(F)F)o2)cc1F)c1ccc2c(c1)CCO2` [Compound 21543, N-(2,3-dihydrobenzofuran-5-yl)-N-(2-fluoro-4-(5-(trifluoromethyl)-1,3,4-oxadiazol-2-yl)benzyl)thiomorpholine-4-carboxamide 1,1-dioxide]: at human recombinant HDAC6, the “HDAC6 selectivity (fold)” value is given as 64 fold and the IC50 was 0.073 µM. Also, the IC50 on human recombinant HDAC1 came to 4.75 µM.

Take `Cn1ncc2ccc(N(Cc3ccc(-c4nnc(C(F)(F)F)o4)cc3F)C(=O)N3CCS(=O)(=O)CC3)cc21` [Compound 21545, N-(2-fluoro-4-(5-(trifluoromethyl)-1,3,4-oxadiazol-2-yl)benzyl)-N-(1-methyl-1H-indazol-6-yl)thiomorpholine-4-carboxamide 1,1-dioxide]: on human recombinant HDAC6, the “HDAC6 selectivity (fold)” value was determined as 85 fold and the IC50 amounted to 0.052 µM. Besides, at human recombinant HDAC1, the IC50 was 4.44 µM.

Consider `CCN1CCN(C(=O)N(Cc2ccc(-c3nnc(C(F)(F)F)o3)cc2F)c2ccc(F)c(Cl)c2)CC1` [Compound 21592, N-(3-chloro-4-fluorophenyl)-4-ethyl-N-(2-fluoro-4-(5-(trifluoromethyl)-1,3,4-oxadiazol-2-yl)benzyl)piperazine-1-carboxamide], for which, on human recombinant HDAC6, the “HDAC6 selectivity (fold)” value is recorded as 100 fold and the IC50 turned out to be 0.1 µM. Besides, the IC50 on human recombinant HDAC1 stood at 8.28 µM.

On to `CCN1CCN(C(=O)N(Cc2ccc(-c3nnc(C(F)F)o3)cc2F)c2ccc(F)cc2Cl)CC1` [Compound 21650, N-(2-chloro-4-fluorophenyl)-N-(4-(5-(difluoromethyl)-1,3,4-oxadiazol-2-yl)-2-fluorobenzyl)-4-ethylpiperazine-1-carboxamide], for which, on human recombinant HDAC6, the “HDAC6 selectivity (fold)” value was found to be 468 fold and the IC50 was found to be 0.077 µM. Moreover, the IC50 at human recombinant HDAC1 amounted to 36.1 µM.

For `CN(C)[C@H]1CCN(C(=O)N(Cc2ccc(-c3nnc(C(F)F)o3)cc2F)c2ccc(F)cc2Cl)C1` [Compound 21651, (S)—N-(2-chloro-4-fluorophenyl)-N-(4-(5-(difluoromethyl)-1,3,4-oxadiazol-2-yl)-2-fluorobenzyl)-3-(dimethylamino)pyrrolidine-1-carboxamide], on human recombinant HDAC6, the “HDAC6 selectivity (fold)” value worked out at 806 fold and the IC50 amounted to 0.061 µM. Further, the IC50 on human recombinant HDAC1 came out at 49.2 µM.

Regarding `CN(C)[C@@H]1CCN(C(=O)N(Cc2ccc(-c3nnc(C(F)F)o3)cc2F)c2ccc(F)cc2Cl)C1` [Compound 21652, (R)—N-(2-chloro-4-fluorophenyl)-N-(4-(5-(difluoromethyl)-1,3,4-oxadiazol-2-yl)-2-fluorobenzyl)-3-(dimethylamino)pyrrolidine-1-carboxamide], on human recombinant HDAC6, the “HDAC6 selectivity (fold)” value is 787 fold and the IC50 came out at 0.046 µM. At human recombinant HDAC1, the IC50 came out at 36.5 µM.

Consider `CN1CCN(C(=O)N(Cc2ccc(-c3nnc(C(F)F)o3)cc2F)c2ccc3cnn(C)c3c2)CC1` [Compound 21654, N-(4-(5-(difluoromethyl)-1,3,4-oxadiazol-2-yl)-2-fluorobenzyl)-4-methyl-N-(1-methyl-1H-indazol-6-yl)piperazine-1-carboxamide], for which the “HDAC6 selectivity (fold)” value on human recombinant HDAC6 worked out at 1518 fold. Further, the IC50 was found to be 0.012 µM at human recombinant HDAC6 and 18.8 µM at human recombinant HDAC1.

For `CCN1CCN(C(=O)N(Cc2ccc(-c3nnc(C(F)F)o3)cc2F)c2ccc(F)c(Br)c2)CC1` [Compound 21656, N-(3-bromo-4-fluorophenyl)-N-(4-(5-(difluoromethyl)-1,3,4-oxadiazol-2-yl)-2-fluorobenzyl)-4-ethylpiperazine-1-carboxamide], at human recombinant HDAC6, the “HDAC6 selectivity (fold)” value was 1122 fold and the IC50 turned out to be 0.033 µM. Further, at human recombinant HDAC1, the IC50 came out at 36.5 µM.

Values taken from patent publication US10717716B2, “1,3,4-oxadiazole derivative compounds as histone deacetylase 6 inhibitor, and the pharmaceutical composition comprising the same” (Chong Kun Dang Pharmaceutical Corp., priority 2015, dated 2020).
